The text below walks through data of article PMC6027297, “A Short Peptide Inhibitor as an Activity-Based Probe for Matriptase-2” (Pharmaceuticals, 2018).

The target in assay [1] is T1, matriptase-2 (MT-2) (Homo sapiens, UniProt Q8IU80).
T1 construct: This fragment consists of the catalytic and the three LDLRA domains of MT-2; made in house; host or cells: stably transfected HEK cells; concentrated culture supernatant, not purified
T1 sequence (Q8IU80 577-811 limits assumed): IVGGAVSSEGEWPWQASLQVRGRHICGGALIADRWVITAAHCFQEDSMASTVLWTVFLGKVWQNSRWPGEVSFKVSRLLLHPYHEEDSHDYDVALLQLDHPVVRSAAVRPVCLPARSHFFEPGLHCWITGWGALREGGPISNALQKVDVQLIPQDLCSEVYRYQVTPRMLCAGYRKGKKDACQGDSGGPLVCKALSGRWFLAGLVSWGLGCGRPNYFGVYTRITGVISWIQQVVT
T1 sequence (Q8IU80 438-576 partner limits assumed): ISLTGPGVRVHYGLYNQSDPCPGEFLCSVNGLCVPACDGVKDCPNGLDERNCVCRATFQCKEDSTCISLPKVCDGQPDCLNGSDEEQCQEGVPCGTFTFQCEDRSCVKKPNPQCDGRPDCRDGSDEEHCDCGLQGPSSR
Kind of assay: MT-2 activity in supernatant of transfected HEK cells (fluorogenic substrate Boc-Gln-Ala-Arg-AMC). It is filed as biochemical. The conditions noted are these: probe 25–100 nM, Boc-Gln-Ala-Arg-AMC 40 µM, NaCl 150 mM, TRIS 50 mM, pH 8.0, 10 µg supernatant, 37 °C, 50 min, ex 340 nm, em 460 nm, non-linear regression of progress curves. How it is done: We used stably transfected human embryonic kidney (HEK) cells as the source for MT-2 [14]. […] Initially, the inhibitory potency of biotin-RQRR-CMK against MT-2 was assessed. For this purpose, we determined MT-2 activity in the supernatant of transfected HEK cells using a tripeptidic fluorogenic substrate. Probe concentrations of 25 nM to 100 nM were applied. Values kobs were obtained from non-linear regression of the progress curves of the supernatant experiment using the equation [P] = v0 (1 − e^−kobs t)/kobs + d(1) where [P] is the product concentration, v0 is the initial rate and d is the offset. […]
Stably transfected human embryonic kidney (HEK) cells expressing MT-2 or an empty vector construct were cultivated in Dulbecco’s Modified Eagle’s Medium (DMEM) containing fetal bovine serum (FBS) as well as penicillin and streptadivin in a concentration of […] at 37 °C. […] The protein concentration of the obtained protein mixture was determined by absorption measurements using Roti-Nanoquant Bradford solution.
Kinetic measurements were performed on a Fluostar Optima plate reader (BMG Lab Tech, Offenburg, Germany) in 96 well plates. […]

Assay [2] deals with T2, matriptase-2 (MT-2) (Homo sapiens, UniProt Q8IU80).
T2 construct: expressed in transfected cells; host or cells: stably transfected HEK cells
T2 sequence (Q8IU80 1-802 isoform Q8IU80-1): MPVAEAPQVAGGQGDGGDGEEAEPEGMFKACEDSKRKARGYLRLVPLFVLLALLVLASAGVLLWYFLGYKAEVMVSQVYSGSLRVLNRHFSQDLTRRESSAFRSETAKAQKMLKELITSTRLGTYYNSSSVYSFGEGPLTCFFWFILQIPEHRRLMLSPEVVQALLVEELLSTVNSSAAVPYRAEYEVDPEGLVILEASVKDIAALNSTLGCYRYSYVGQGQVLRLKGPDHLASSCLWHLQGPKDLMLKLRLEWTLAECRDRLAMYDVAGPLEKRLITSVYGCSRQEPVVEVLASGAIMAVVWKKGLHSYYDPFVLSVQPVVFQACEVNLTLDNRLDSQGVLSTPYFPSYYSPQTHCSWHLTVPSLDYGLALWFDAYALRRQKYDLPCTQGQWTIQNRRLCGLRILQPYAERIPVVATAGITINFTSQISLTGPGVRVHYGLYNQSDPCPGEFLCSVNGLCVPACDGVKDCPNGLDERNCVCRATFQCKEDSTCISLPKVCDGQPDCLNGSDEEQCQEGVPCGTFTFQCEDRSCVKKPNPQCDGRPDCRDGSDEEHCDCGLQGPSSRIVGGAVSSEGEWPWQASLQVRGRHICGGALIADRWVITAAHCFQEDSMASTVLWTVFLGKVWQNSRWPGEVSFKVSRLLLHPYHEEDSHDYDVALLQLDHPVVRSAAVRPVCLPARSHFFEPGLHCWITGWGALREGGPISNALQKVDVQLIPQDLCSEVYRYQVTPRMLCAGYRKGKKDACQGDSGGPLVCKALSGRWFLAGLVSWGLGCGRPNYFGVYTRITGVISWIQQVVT
As to the kind of experiment: MT-2 activity on the surface of transfected HEK cells. It is filed as cell-based. How it is done: To further investigate the inhibitory potency of the probe in an in vitro approach, MT-2 activity was measured on the surface of stably transfected HEK cells expressing MT-2. Different probe concentrations were applied (Figure 3).
To measure MT-2 activity at the cell surface, HEK cells were seeded in 96 well cell culture plates and cultivated at 37 °C in DMEM medium until a confluence of approximately 70% was reached. After two washing steps with PBS and two further days of incubation in Opti-MEM medium at 37 °C, the culture medium was removed and the cells were washed two times with PBS. MT-2 assay buffer, biotin-RQRR-CMK and DMSO were then directly added to the cells before the reaction was started by adding substrate solution in a final concentration of 40 µM to each well. The conversion of the substrate by MT-2 was followed over a time of 50 min at 37 °C.

The test system of assay [3] is matriptase-2 (MT-2). Kind of assay: Western blot detection of biotin-RQRR-CMK-labeled MT-2 in HEK-cell supernatant (Strep-Tactin/AP). The settings on record: 30 µg HEK-MT-2 supernatant, 50 µM aprotinin for 2 h before probe (5 µM, 30 min). How it is done:
Similar to antibody staining addressing the myc tag, the biotin tag which was chemically introduced by biotin-RQRR-CMK was employed for the detection of MT-2 after western blotting. For this purpose, 30 µg of HEK-mock or HEK-MT-2 supernatants were incubated with or without biotin-RQRR-CMK prior to SDS-PAGE. After transfer to a nitrocellulose membrane, the blot was incubated with a conjugate of Strep-Tactin with alkaline phosphatase (AP). […] This band was only observed in the supernatant of HEK cells expressing active MT-2 that was treated with the probe.
(§1) To confirm that biotin-RQRR-CMK binds to the active site of MT-2, we added aprotinin to the supernatants of HEK-MT-2 cells. Treatment with aprotinin or DMSO was carried out 2 h prior to probe treatment. […] MT-2 was present in the supernatant of transfected HEK cells incubated with the probe and/or aprotinin (Figure 6: panel a).
Stably transfected human embryonic kidney (HEK) cells expressing MT-2 or an empty vector construct were cultivated in Dulbecco’s Modified Eagle’s Medium (DMEM) containing fetal bovine serum (FBS) as well as penicillin and streptadivin in a concentration of […] at 37 °C. […] The protein concentration of the obtained protein mixture was determined by absorption measurements using Roti-Nanoquant Bradford solution. […]

In the next assay the test system is MT-2. The conditions noted are these: active-site directed inhibitor of serine proteases; ref [1],[38]; cited from earlier work. The procedure: as §1

Residues, ends and D or L forms follow the SMILES beside them. *: point of attachment. Biotin = O=C1N[C@H]2[C@H](CS[C@H]2CCCCC(=O)*)N1; CH2Cl = ClC*

Regarding `N=C(N)NCCC[C@H](NC(=O)[C@H](CCCNC(=N)N)NC(=O)[C@H](CCC(N)=O)NC(=O)[C@H](CCCNC(=N)N)NC(=O)CCCC[C@@H]1SC[C@@H]2NC(=O)N[C@@H]21)C(=O)CCl` [biotin-RQRR-CMK] (Biotin-RQRR-CH2Cl), on matriptase-2 (MT-2) [1], the “kinac/Ki (second-order rate constant of inactivation)” value was 10,800 M^−1 s^−1. In addition, the affinity on matriptase-2 (MT-2) [2] (surface of stably transfected HEK cells, probe 100–600 nM, substrate 40 µM, MT-2 assay buffer, 37 °C, 50 min, linear regression of progress curves, equation (3)), expressed as Ki, was 89 nM. Besides, the “Ki (in words)” value on matriptase-2 (MT-2) [2] (surface of transfected HEK cells) is recorded as “two-digit nanomolar Ki value”.
As to aprotinin, in the assay with matriptase-2 (MT-2) [3], the “protection of MT-2 from labeling by biotin-RQRR-CMK” value is reported as “labeled MT-2 fragment which was missing in HEK-MT-2 supernatants after aprotinin treatment”. The “inhibition of MT-2” value in the assay on MT-2 is given as “has been shown to inhibit MT-2”.
